Data set [1] relates to P. falciparum 3D7 strain. Put plainly: P. falciparum growth inhibition assay (3D7 strain). The data set is classed as cell-based, Plasmodium falciparum. As to the method:
After the synchronization process, a new culture at 1.5% parasitemia and 2% hematocrit was established and 150 μL aliquots of it were transferred to 96-well plates.
The required amounts of peptides, antimalarial compounds and dyes were added in each well at different concentrations and in triplicates. A positive growth control of untreated parasites and a negative growth control of parasites treated with a lethal dose of chloroquine (1 μM) were also included.
Parasites were grown for 48 h, a complete replication cycle, in standard culturing conditions (5% O2, 5% CO2, and 90% N2 at 37° C.). After the incubation period, 3 μL of culture from each well were mixed with 197 μL of PBS containing 0.1 μM Syto 11 (Thermo Fisher Scientific Inc), to obtain a final concentration of ca. 1-10×10^6 cells/ml.
Parasitemia was assessed by flow cytometry using a LSRFortessa flow cytometer (BD Biosciences, San Jose, CA, USA) set up with the 4 lasers, 20 parameters standard configuration. The single-cell population was selected on a forward-side scatter scattergram.
Growth inhibition was calculated taking as reference values both the growth rate of the untreated culture and the growth rate of the culture treated with chloroquine.

Data set [2] relates to human umbilical vein endothelial cell cultures. Put plainly: Cytotoxicity (CC50) and in vitro therapeutic index. The conditions noted are these: 50% cytotoxic concentration (CC50)/IC50 in 3D7 strain. The class given is cell-based.
[3] abbreviates: Plasmodium falciparum, 3D7 strain, Example 8, read-out: IC50 in 3D7 strain.

Read-outs that look alike come from different tables or passages of the source. Some results are limits rather than exact numbers.

As for `CCN(CC)c1ccc(/C=C/c2cc[n+](CCCCCCCC[n+]3ccc(/C=C/c4ccc(N(CC)CC)cc4)c(C)c3)cc2C)cc1.[Br-].[Br-]` [PRC-8, 1,1′-(octane-1,8-diyl)bis{4-[(E)-4-(diethylamino)styryl]-3-methylpyridin-1-ium} dibromide], the “antimalarial / antiplasmodial activity in vitro” value in data set [1] (3D7 strain) is recorded as “potent antimalarial activity”. Besides, the IC50 in data set [1] (setting [3]) came to 0.14 µM.
Consider `Cc1c[n+](CCCCCCCCCC[n+]2ccc(/C=C/c3ccc(N(c4ccccc4)c4ccccc4)cc3)c(C)c2)ccc1/C=C/c1ccc(N(c2ccccc2)c2ccccc2)cc1` [EMA366, 1,1′-(decane-1,10-diyl)bis{4-[(E)-4-(diphenylamino)styryl]-3-methylpyridin-1-ium} dibromide], for which the IC50 in data set [1] (setting [3]) was 0.52 µM.
Turning to `CCN(CC)c1ccc(/C=C/c2cc[n+](CCCCCCCCCC[n+]3ccc(/C=C/c4ccc(N(CC)CC)cc4)c(Br)c3)cc2Br)cc1.[Br-].[Br-]` [PRC-42, 1,1′-(decane-1,10-diyl)bis{3-bromo-4-[(E)-4-(diethylamino)styryl]pyridin-1-ium} dibromide], in data set [1] (3D7 strain), the “antimalarial / antiplasmodial activity in vitro” value is given as “potent antimalarial activity”. Moreover, the IC50 in data set [1] (setting [3]) worked out at 0.1 µM.
`CCN(CC)c1ccc(/C=C/c2cc[n+](CCCCCCCCCCCC[n+]3ccc(/C=C/c4ccc(N(CC)CC)cc4)c(C)c3)cc2C)cc1.[Br-].[Br-]` [PRC-15, 1,1′-(dodecane-1,12-diyl)bis{4-[(E)-4-(diethylamino)styryl]-3-methylpyridin-1-ium} dibromide]: the “antimalarial / antiplasmodial activity in vitro” value in data set [1] (3D7 strain) is on record as “potent antimalarial activity”. For the same compound, the IC50 in data set [1] (setting [3]) was found to be 0.06 µM.
In the same order, the values of `CCN(CC)c1ccc(/C=C/c2cc[n+](CCCCCCCCCCC[n+]3ccc(/C=C/c4ccc(N(CC)CC)cc4)c(C)c3)cc2C)cc1.[Br-].[Br-]` [PRC-14, 1,1′-(undecane-1,11-diyl)bis{4-[(E)-4-(diethylamino)styryl]-3-methylpyridin-1-ium} dibromide] are “potent antimalarial activity” and 0.06 µM.
For `Nc1c(/N=N/c2ccc(-c3ccc(/N=N/c4cc(S(=O)(=O)[O-])c5ccccc5c4N)cc3)cc2)cc(S(=O)(=O)[O-])c2ccccc12.[Na+].[Na+]` [Congo Red, reference compound], in data set [1] (3D7 strain), the “antimalarial / antiplasmodial activity in vitro” value is recorded as “did not exhibit significant antiplasmodial activity”. In addition, the IC50 in data set [1] (3D7 strain, 48 h, Table 2, read-out: IC50 in 3D7 strain (μM) ± SEM) was above 15 µM.
With `Cc1c[n+](CCCCCCCCCC[n+]2ccc(/C=C/c3ccc(N(C)CCC#N)cc3)c(C)c2)ccc1/C=C/c1ccc(N(C)CCC#N)cc1.[Br-].[Br-]` [EMA359, 1,1′-(decane-1,10-diyl)bis{4-{(E)-4-[(2-cyanoethyl)methylamino]styryl}-3-methylpyridin-1-ium} dibromide], the “antimalarial / antiplasmodial activity in vitro” value in data set [1] (3D7 strain) is given as “potent antimalarial activity”. The IC50 in data set [1] (setting [3]) stood at 0.11 µM.
Turning to `CCN(CC)c1ccc(/C=C/c2cc[n+](CCOCCOCC[n+]3ccc(/C=C/c4ccc(N(CC)CC)cc4)c(C)c3)cc2C)cc1` [PRC-20, 1,1′-(3,6-dioxaoctane-1,8-diyl)bis{4-[(E)-4-(diethylamino)styryl]-3-methylpyridin-1-ium} diiodide], the IC50 in data set [1] (setting [3]) turned out to be 0.2 µM.
For `Cc1c[n+](CCCCCCCCCC[n+]2ccc(/C=C/c3ccc(N4CCOCC4)cc3)c(C)c2)ccc1/C=C/c1ccc(N2CCOCC2)cc1.[Br-].[Br-]` [EMA377, 1,1′-(decane-1,10-diyl)bis{3-methyl-4-[(E)-4-morpholinostyryl]pyridin-1-ium} dibromide], the “antimalarial / antiplasmodial activity in vitro” value in data set [1] (3D7 strain) is “potent antimalarial activity”. For the same compound, the IC50 in data set [1] (setting [3]) was determined as 0.06 µM.
In the same order, the values of `CCN(CC)c1ccc(/C=C/c2cc[n+](CCCCCCCCCC[n+]3ccc(/C=C/c4ccc(N(CC)CC)cc4)c(Cl)c3)cc2Cl)cc1.[Br-].[Br-]` [PRC-50, 1,1′-(decane-1,10-diyl)bis{3-chloro-4-[(E)-4-(diethylamino)styryl]pyridin-1-ium} dibromide] are “potent antimalarial activity” and 0.1 µM.
Take `CCN(CC)c1ccc(/C=C/c2cc[n+](Cc3cccc(C[n+]4ccc(/C=C/c5ccc(N(CC)CC)cc5)c(C)c4)c3)cc2C)cc1` [PRC-31, 1,1′-[1,3-phenylenebis(methylene)]bis{4-[(E)-4-(diethylamino)styryl]-3-methylpyridin-1-ium} dibromide]: in data set [1] (setting [3]), the IC50 was 0.54 µM.
The same measure, in the same setting: next, `Cc1c[n+](CCCCCCCCCC[n+]2ccc(/C=C/c3ccc(N4CCCC4)cc3)c(C)c2)ccc1/C=C/c1ccc(N2CCCC2)cc1` [EMA368, 1,1′-(decane-1,10-diyl)bis{3-methyl-4-[(E)-4-(pyrrolidin-1-yl)styryl]pyridin-1-ium} dibromide]: 0.29 µM.
For `Cc1c[n+](CCCCCCCCCC[n+]2ccc(/C=C/c3ccc(N(C)C)cc3)c(C)c2)ccc1/C=C/c1ccc(N(C)C)cc1.[Br-].[Br-]` [EMA357, 1,1′-(decane-1,10-diyl)bis{4-[(E)-4-(dimethylamino)styryl]-3-methylpyridin-1-ium} dibromide], in data set [1] (3D7 strain), the “antimalarial / antiplasmodial activity in vitro” value is “potent antimalarial activity”. Further, the half-maximal inhibitory concentration (IC50) in data set [1] (setting [3]) stood at 0.12 µM.
For `CCN(CC)c1ccc(/C=C/c2cc[n+](CCCCCCCCC[n+]3ccc(/C=C/c4ccc(N(CC)CC)cc4)c(C)c3)cc2C)cc1.[Br-].[Br-]` [PRC-25, 1,1′-(nonane-1,9-diyl)bis{4-[(E)-4-(diethylamino)styryl]-3-methylpyridin-1-ium} dibromide], the “antimalarial / antiplasmodial activity in vitro” value in data set [1] (3D7 strain) is recorded as “potent antimalarial activity”. Moreover, the IC50 stood at 0.05 µM in data set [1] (setting [3]) and 0.047 µM in data set [1] (Plasmodium falciparum, 3D7 strain, read-out: IC50 in P. falciparum in vitro cultures).
Take `CCN(CC)c1ccc(/C=C/c2cc[n+](CCCCCCCCCC[n+]3ccc(/C=C/c4ccc(N(CC)CC)cc4)cc3)cc2)cc1.[Br-].[Br-]` [PRC-39, 1,1′-(decane-1,10-diyl)bis{4-[(E)-4-(diethylamino)styryl]pyridin-1-ium} dibromide]: the “antimalarial / antiplasmodial activity in vitro” value in data set [1] (3D7 strain) is recorded as “potent antimalarial activity”. In data set [1] (setting [3]), the IC50 stood at 0.15 µM.
Consider `CCN(CC)c1ccc(/C=C/c2cc[n+](CCOCCOCCOCC[n+]3ccc(/C=C/c4ccc(N(CC)CC)cc4)c(C)c3)cc2C)cc1` [PRC-28, 1,1′-(3,6,9-trioxaundecane-1,11-diyl)bis{4-[(E)-4-(diethylamino)styryl]-3-methylpyridin-1-ium} dichloride], for which the half-inhibitory concentration (IC50) in data set [1] (setting [3]) was found to be 0.25 µM.
On to `Cc1ccc2c(c1)sc(-c1ccc(N(C)C)cc1)[n+]2C.[Cl-]` [ThT, Thioflavin T, reference compound], for which the “antimalarial / antiplasmodial activity in vitro” value in data set [1] (3D7 strain) was “did not exhibit significant antiplasmodial activity”. In addition, the half-inhibitory concentration (IC50) in data set [1] (Plasmodium falciparum, 3D7 strain, 48 h, Table 2, read-out: IC50 in 3D7 strain (μM) ± SEM) was determined as 1.57 ± 0.23 µM.
Turning to `O=C(NCNc1c2c(nc3cc(Cl)ccc13)CCCC2)c1ccc2nc(-c3ccc(Cl)cc3)c3c(c2c1)NCCC3` [DP128, reference compound], the “Therapeutic index in vitro” value in data set [2] is 75.4. Further, in data set [1] (Plasmodium falciparum, 3D7, 48 h, read-out: IC50 in 3D7 strain (μM) ± SEM), the IC50 is 0.65 ± 0.14 µM.
Turning to `CCN(CC)c1ccc(/C=C/c2cc[n+](CCCC[n+]3ccc(/C=C/c4ccc(N(CC)CC)cc4)c(C)c3)cc2C)cc1` [PRC-5, 1,1′-(butane-1,4-diyl)bis{4-[(E)-4-(diethylamino)styryl]-3-methylpyridin-1-ium} dibromide], the IC50 in data set [1] (setting [3]) came out at 0.42 µM.
Still for that read-out and setting: next, `CCN(CC)c1ccc(/C=C/c2cc[n+](Cc3ccc(C[n+]4ccc(/C=C/c5ccc(N(CC)CC)cc5)c(C)c4)cc3)cc2C)cc1` [PRC-29, 1,1′-[1,4-phenylenebis(methylene)]bis{4-[(E)-4-(diethylamino)styryl]-3-methylpyridin-1-ium} dibromide]: 0.46 µM.

Broadly, the IC50 is the midpoint of a concentration-inhibition curve.

These data come from US20240415825A1, “COMPOUNDS FOR THE TREATMENT OF MALARIA” (FUNDACIÓ INSTITUT DE BIOENGINYERIA DE CATALUNYA, priority 2021, published 2024).
